Test results published in patent US6914045B2, “Glycopeptide antibiotics” (Wyeth Holdings Corporation, priority 2001, dated 2005).
≈ marks a conversion by molar mass, not a printed value.

Assays:
Test in all cases: in vitro antibacterial evaluation, MIC by broth dilution
Format in all cases: cell-based
Staphylococcus sp. = details: broth dilution, 18 hours at 35° C.
In short: (§1)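 MIC, the lowest antibiotic concentration preventing growth, was read across 64-0.06 μg/mL with 5×10^5 CFU/mL inoculum. Method followed NCCLS M7-A2 broth dilution using Mueller-Hinton II; Gram-positive strains covered recent methicillin-, penicillin- and/or vancomycin-resistant clinical isolates.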

Escherichia coli = details: 18 hours at 35° C.
In short: as §1

Streptococcus sp. = details: broth dilution, 18 hours at 35° C.
In short: as §1

Enterococcus sp. = details: broth dilution, 18 hours at 35° C.
In short: as §1

CC(c1ccccc1)C1NC(=O)CNC(=O)C(CO)NC(=O)C(C(O)C2CNC(=N)N2C2OC(CO)C(O)C(O)C2O)NC(=O)C(C(O)C2CNC(=N)N2)NC(=O)C(Cc2ccc(OC3OC(CO)C(OC4OC5COC(c6cccs6)OC5C(O)C4O)C(O)C3O)cc2)NC1=O (stereo not shown) [Example 132]
MIC Staphylococcus aureus (ATCC 29213) (Staphylococcus sp.): 4 µg/mL (≈ 2.88 µM) | MIC Staphylococcus aureus (GC 1131) (Staphylococcus sp.): 2 µg/mL (≈ 1.44 µM) | MIC Staphylococcus aureus (GC 3051) (Staphylococcus sp.): 2 µg/mL (≈ 1.44 µM) | MIC Staphylococcus aureus (GC 3053) (Staphylococcus sp.): 4 µg/mL (≈ 2.88 µM) | MIC Staphylococcus aureus (GC 4541) (Staphylococcus sp.): 2 µg/mL (≈ 1.44 µM) | MIC Staphylococcus aureus (GC 4542) (Staphylococcus sp.): 2 µg/mL (≈ 1.44 µM) | MIC Staphylococcus aureus (GC 4544) (Staphylococcus sp.): 4 µg/mL (≈ 2.88 µM) | MIC Staphylococcus aureus (GC 4545) (Staphylococcus sp.): 2 µg/mL (≈ 1.44 µM) | MIC Staphylococcus aureus (GC 1131) (Staphylococcus sp.; inoculum 5×10^5 CFU/mL, strain GC 1131): 2 µg/mL (≈ 1.44 µM) | MIC Staphylococcus aureus (ATCC 29213) (Staphylococcus sp.; strain ATCC 29213): 4 µg/mL (≈ 2.88 µM) | MIC Staphylococcus aureus (GC 3051) (Staphylococcus sp.; strain GC 3051): 2 µg/mL (≈ 1.44 µM) | MIC Staphylococcus aureus (GC 3053) (Staphylococcus sp.; strain GC 3053): 4 µg/mL (≈ 2.88 µM) | MIC Staphylococcus aureus (GC 4541) (Staphylococcus sp.; strain GC 4541): 2 µg/mL (≈ 1.44 µM) | MIC Staphylococcus aureus (GC 4542) (Staphylococcus sp.; strain GC 4542): 2 µg/mL (≈ 1.44 µM) | MIC Staphylococcus aureus-SMITH (GC 4543) (Staphylococcus sp.; strain GC 4543): 2 µg/mL (≈ 1.44 µM) | MIC Staphylococcus aureus (GC 4544) (Staphylococcus sp.; strain GC 4544): 4 µg/mL (≈ 2.88 µM) | MIC Staphylococcus aureus (GC 4545) (Staphylococcus sp.; strain GC 4545): 2 µg/mL (≈ 1.44 µM) | MIC Staphylococcus haemolyticus (GC 4546) (Staphylococcus sp.; strain GC 4546): 1 µg/mL (≈ 0.72 µM) | MIC Coagulase Negative Staphylococcus (GC 4547) (Staphylococcus sp.; strain GC 4547): 2 µg/mL (≈ 1.44 µM) | MIC Coagulase Negative Staphylococcus (GC 4548) (Staphylococcus sp.; strain GC 4548): 1 µg/mL (≈ 0.72 µM) | MIC Coagulase Negative Staphylococcus (GC 4549) (Staphylococcus sp.; strain GC 4549): 1 µg/mL (≈ 0.72 µM) | MIC Coagulase Negative Staphylococcus (GC 4551) (Staphylococcus sp.; strain GC 4551): 2 µg/mL (≈ 1.44 µM) | MIC Coagulase Negative Staphylococcus (GC 6257) (Staphylococcus sp.; strain GC 6257): 1 µg/mL (≈ 0.72 µM) | MIC Staphylococcus aureus-SMITH (GC 4543) (Staphylococcus sp.; strain SMITH GC 4543): 2 µg/mL (≈ 1.44 µM) | MIC Escherichia coli (ATCC 25922) (Escherichia coli; strain ATCC 25922): >64 µg/mL | MIC Escherichia coli (GC 4559) (Escherichia coli; strain GC 4559): 32 µg/mL (≈ 23 µM) | MIC Escherichia coli (GC 4560) (Escherichia coli; strain GC 4560): 1 µg/mL (≈ 0.72 µM) | MIC Streptococcus agalactiae (GC 4564) (Streptococcus sp.; Streptococcus agalactiae (GC 4564)): 0.5 µg/mL (≈ 0.36 µM) | MIC Streptococcus pneumoniae (ATCC 6301) (Streptococcus sp.; Streptococcus pneumoniae (ATCC 6301)): 0.25 µg/mL (≈ 0.18 µM) | MIC Streptococcus pneumoniae (GC 1894) (Streptococcus sp.; Streptococcus pneumoniae (GC 1894)): 0.12 µg/mL (≈ 0.0864 µM) | MIC Streptococcus pneumoniae (GC 4565) (Streptococcus sp.; Streptococcus pneumoniae (GC 4565)): 0.25 µg/mL (≈ 0.18 µM) | MIC Streptococcus pyogenes (GC 4563) (Streptococcus sp.; Streptococcus pyogenes (GC 4563)): 0.5 µg/mL (≈ 0.36 µM) | MIC Streptococcus pneumoniae (ATCC 6301) (Streptococcus sp.; strain ATCC 6301): 0.25 µg/mL (≈ 0.18 µM) | MIC Streptococcus pneumoniae (GC 1894) (Streptococcus sp.; strain GC 1894): 0.12 µg/mL (≈ 0.0864 µM) | MIC Streptococcus pyogenes (GC 4563) (Streptococcus sp.; strain GC 4563): 0.5 µg/mL (≈ 0.36 µM) | MIC Streptococcus agalactiae (GC 4564) (Streptococcus sp.; strain GC 4564): 0.5 µg/mL (≈ 0.36 µM) | MIC Streptococcus pneumoniae (GC 4565) (Streptococcus sp.; strain GC 4565): 0.25 µg/mL (≈ 0.18 µM) | MIC Enterococcus avium (GC 4558) (Enterococcus sp.; Enterococcus avium (GC 4558)): 16 µg/mL (≈ 11.5 µM) | MIC Enterococcus faecalis (ATCC 29212) (Enterococcus sp.; Enterococcus faecalis (ATCC 29212)): 8 µg/mL (≈ 5.76 µM) | MIC Enterococcus faecalis (GC 2242) (Enterococcus sp.; Enterococcus faecalis (GC 2242)): 8 µg/mL (≈ 5.76 µM) | MIC Enterococcus faecalis (GC 2691) (Enterococcus sp.; Enterococcus faecalis (GC 2691)): 8 µg/mL (≈ 5.76 µM) | MIC Enterococcus faecalis (GC 3059) (Enterococcus sp.; Enterococcus faecalis (GC 3059)): 16 µg/mL (≈ 11.5 µM) | MIC Enterococcus faecalis (GC 4552) (Enterococcus sp.; Enterococcus faecalis (GC 4552)): 8 µg/mL (≈ 5.76 µM) | MIC Enterococcus faecalis (GC 4553) (Enterococcus sp.; Enterococcus faecalis (GC 4553)): 16 µg/mL (≈ 11.5 µM) | MIC Enterococcus faecalis (GC 4554) (Enterococcus sp.; Enterococcus faecalis (GC 4554)): 8 µg/mL (≈ 5.76 µM) | MIC Enterococcus faecalis (GC 6189) (Enterococcus sp.; Enterococcus faecalis (GC 6189)): 8 µg/mL (≈ 5.76 µM) | MIC Enterococcus faecium (GC 2243) (Enterococcus sp.; Enterococcus faecium (GC 2243)): 8 µg/mL (≈ 5.76 µM) | MIC Enterococcus faecium (GC 4556) (Enterococcus sp.; Enterococcus faecium (GC 4556)): 8 µg/mL (≈ 5.76 µM) | MIC Enterococcus faecium (GC 4557) (Enterococcus sp.; Enterococcus faecium (GC 4557)): 4 µg/mL (≈ 2.88 µM) | MIC Enterococcus faecalis (ATCC 29212) (Enterococcus sp.; strain ATCC 29212): 8 µg/mL (≈ 5.76 µM) | MIC Enterococcus faecalis (GC 2242) (Enterococcus sp.; strain GC 2242): 8 µg/mL (≈ 5.76 µM) | MIC Enterococcus faecium (GC 2243) (Enterococcus sp.; strain GC 2243): 8 µg/mL (≈ 5.76 µM) | MIC Enterococcus faecalis (GC 2691) (Enterococcus sp.; strain GC 2691): 8 µg/mL (≈ 5.76 µM) | MIC Enterococcus faecalis (GC 3059) (Enterococcus sp.; strain GC 3059): 16 µg/mL (≈ 11.5 µM) | MIC Enterococcus faecalis (GC 4552) (Enterococcus sp.; strain GC 4552): 8 µg/mL (≈ 5.76 µM) | MIC Enterococcus faecalis (GC 4553) (Enterococcus sp.; strain GC 4553): 16 µg/mL (≈ 11.5 µM) | MIC Enterococcus faecalis (GC 4554) (Enterococcus sp.; strain GC 4554): 8 µg/mL (≈ 5.76 µM) | MIC Enterococcus faecium (GC 4556) (Enterococcus sp.; strain GC 4556): 8 µg/mL (≈ 5.76 µM) | MIC Enterococcus faecium (GC 4557) (Enterococcus sp.; strain GC 4557): 4 µg/mL (≈ 2.88 µM) | MIC Enterococcus avium (GC 4558) (Enterococcus sp.; strain GC 4558): 16 µg/mL (≈ 11.5 µM) | MIC Enterococcus faecalis (GC 6189) (Enterococcus sp.; strain GC 6189): 8 µg/mL (≈ 5.76 µM)
